Tests used:
IRAK4 = IRAK4 (Homo sapiens (Human), UniProt Q9NWZ3); assay: IRAK4 ADP-Glo Assay; assay type: biochemical; details: MBP substrate
Summary of the method: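 Human IRAK4 kinase reaction with MBP substrate plus ATP in Tris-HCl/MgCl2/BSA/DTT buffer, pH 7.4, run 60 min at room temperature or 30 min at 30 °C. ADP formed was measured by ADP-Glo luminescence after ATP depletion (40 min) and detection reagent (30 min).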

IL23p19 in THP-1 Cells = assay: LPS Induced IL23p19 in THP-1 Cells (with IFNγ Primed) Assay; assay type: cell-based; details: Homo sapiens, THP-1, 18 h, read-out: IL23 (THP, LPS) (IC50, μM)
Summary of the method: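 THP-1 cells (50K/well) primed with IFNγ (50 ng/mL) about 18 h, then given compound and stimulated with LPS for 18 h at 37 °C. Secreted IL-23p19 measured by sandwich ELISA with chemiluminescent read-out, giving EC50. Cell Titer Glo used on the remaining cells for toxicity.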

[1] = tested on: TNF-α in Human Primary Monocyte-Derived Dendritic Cells; assay: Gardiquimod-Induced TNF-α in Human Primary Monocyte-Derived Dendritic Cells; assay type: cell-based; details: Dendritic cell, IFNγ-primed monocyte-derived dendritic cells, 4 μg/ml Gardiquimod, 6 hours, TNF-α ELISA, read-out: TNFα (DC, GARD) (IC50)
Summary of the method: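 Monocytes differentiated 7 days with GM-CSF and IL-4, then primed 24 h with 50 ng/ml IFN-γ. Compound added 1 h before 6 h stimulation with 4 μg/ml Gardiquimod, 0.5% DMSO final. Supernatant TNF-α measured by chemiluminescent ELISA; EC50 from curve fitting.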

TNF-α in human PBMCs = assay: R848-induced TNF-α in human PBMCs Assay; assay type: cell-based; details: Homo sapiens, PBMC, 4 h, read-out: TNFα (PBMC, R848) (IC50, μM)
Summary of the method: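 Human PBMCs at 200K/well were pretreated with compound, then R848-stimulated for 4 h at 37 °C, 5% CO2. Supernatant TNF-α quantified by chemiluminescent ELISA; EC50 from curve fitting.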

IRAK4, sequence (Q9NWZ3 whole entry): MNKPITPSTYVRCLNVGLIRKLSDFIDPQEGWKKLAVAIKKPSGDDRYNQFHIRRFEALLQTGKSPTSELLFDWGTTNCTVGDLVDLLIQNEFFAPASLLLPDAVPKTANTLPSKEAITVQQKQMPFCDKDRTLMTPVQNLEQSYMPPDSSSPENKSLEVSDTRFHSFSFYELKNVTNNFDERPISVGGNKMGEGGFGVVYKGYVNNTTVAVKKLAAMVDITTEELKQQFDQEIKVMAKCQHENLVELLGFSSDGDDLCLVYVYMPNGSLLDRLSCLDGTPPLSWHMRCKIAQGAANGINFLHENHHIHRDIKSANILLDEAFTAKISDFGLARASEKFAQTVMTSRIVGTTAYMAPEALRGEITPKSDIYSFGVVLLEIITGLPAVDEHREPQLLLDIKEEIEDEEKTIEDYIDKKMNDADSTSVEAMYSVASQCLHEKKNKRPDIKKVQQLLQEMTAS

Compound | IC50 (IRAK4) | IC50 (IL23p19 in THP-1 Cells) | IC50 [1] | IC50 (TNF-α in human PBMCs)
CC(C)Oc1cc2c(O[C@@H]3CCCNC3)ncc(-c3cnn(CC4CCOCC4)c3)c2cc1C(N)=O [Compound I-112, (R)-7-isopropoxy-1-(piperidin-3-yloxy)-4-(1-((tetrahydro-2H-pyran-4-yl)methyl)-1H-pyrazol-4-yl)isoquinoline-6-carboxamide] | 280 nM | 13.6 µM | 9220 nM | 3.95 µM
CC(C)Oc1cc2c(O[C@@H]3CCCNC3)ncc(-c3cnn(CCC4CCOCC4)c3)c2cc1C(N)=O [Compound I-113, (R)-7-isopropoxy-1-(piperidin-3-yloxy)-4-(1-(2-(tetrahydro-2H-pyran-4-yl)ethyl)-1H-pyrazol-4-yl)isoquinoline-6-carboxamide] | 364 nM | 8.82 µM | 853 nM | 0.677 µM
CC(C)Oc1cc2c(O[C@@H]3CCCN(C(=O)CC#N)C3)ncc(-c3cnn(C4CC4)c3)c2cc1C(N)=O [Compound I-114, (R)-1-((1-(2-cyanoacetyl)piperidin-3-yl)oxy)-4-(1-cyclopropyl-1H-pyrazol-4-yl)-7-isopropoxyisoquinoline-6-carboxamide] | 12.3 nM | 1.42 µM | 659 nM | 0.549 µM
CC(C)Oc1cc2c(O[C@@H]3CCCN(C(=O)CC#N)C3)ncc(-c3cnn(C4CCC4)c3)c2cc1C(N)=O [Compound I-115, (R)-1-((1-(2-cyanoacetyl)piperidin-3-yl)oxy)-4-(1-cyclobutyl-1H-pyrazol-4-yl)-7-isopropoxyisoquinoline-6-carboxamide] | 13.2 nM | 0.911 µM | 450 nM | 0.443 µM
CC(C)Oc1cc2c(O[C@@H]3CCCN(C(=O)CC#N)C3)ncc(-c3cnn(C4CCCC4)c3)c2cc1C(N)=O [Compound I-116, (R)-1-((1-(2-cyanoacetyl)piperidin-3-yl)oxy)-4-(1-cyclopentyl-1H-pyrazol-4-yl)-7-isopropoxyisoquinoline-6-carboxamide] | 7.7 nM | 1.37 µM | 219 nM | 0.271 µM
CC(C)Oc1cc2c(O[C@@H]3CCCN(C(=O)CC#N)C3)ncc(-c3cnn(C4CCOCC4)c3)c2cc1C(N)=O [Compound I-117, (R)-1-((1-(2-cyanoacetyl)piperidin-3-yl)oxy)-7-isopropoxy-4-(1-(tetrahydro-2H-pyran-4-yl)-1H-pyrazol-4-yl)isoquinoline-6-carboxamide] | 25.3 nM | 3.91 µM | 1030 nM | 7.24 µM
CC(C)Oc1cc2c(O[C@@H]3CCCN(C(=O)CC#N)C3)ncc(-c3cnn(CC4CCOCC4)c3)c2cc1C(N)=O [Compound I-118, (R)-1-((1-(2-cyanoacetyl)piperidin-3-yl)oxy)-7-isopropoxy-4-(1-((tetrahydro-2H-pyran-4-yl)methyl)-1H-pyrazol-4-yl)isoquinoline-6-carboxamide] | 20.4 nM | 4.2 µM | 1500 nM | 6.5 µM
CC(C)Oc1cc2c(O[C@@H]3CCCN(C(=O)CC#N)C3)ncc(-c3cnn(CCC4CCOCC4)c3)c2cc1C(N)=O [Compound I-119, (R)-1-((1-(2-cyanoacetyl)piperidin-3-yl)oxy)-7-isopropoxy-4-(1-(2-(tetrahydro-2H-pyran-4-yl)ethyl)-1H-pyrazol-4-yl)isoquinoline-6-carboxamide] | 18.4 nM | 2.22 µM | 1020 nM | 2.51 µM
CC(C)Oc1cc2c(O[C@@H]3CCCN(C(=O)CC#N)C3)ncc(-c3cnn([C@H]4C[C@@H](N(C)C)C4)c3)c2cc1C(N)=O [Compound I-120, 1-(((R)-1-(2-cyanoacetyl)piperidin-3-yl)oxy)-4-(1-(cis-3-(dimethylamino)cyclobutyl)-1H-pyrazol-4-yl)-7-isopropoxyisoquinoline-6-carboxamide] | 8.4 nM | 2.83 µM | 423 nM | 0.227 µM
CC(C)Oc1cc2c(O[C@@H]3CCCN(C(=O)CC#N)C3)ncc(-c3cnn(C4CCN(C(=O)OC(C)(C)C)CC4)c3)c2cc1C(N)=O [Compound I-121, tert-butyl (R)-4-(4-(6-carbamoyl-1-((1-(2-cyanoacetyl)piperidin-3-yl)oxy)-7-isopropoxyisoquinolin-4-yl)-1H-pyrazol-1-yl)piperidine-1-carboxylate] | 12.9 nM | 1.9 µM | 1020 nM | 1.76 µM
CC(C)Oc1cc2c(O[C@@H]3CCCN(C(=O)CC#N)C3)ncc(-c3cnn(C4CCN(C)CC4)c3)c2cc1C(N)=O [Compound I-123, (R)-1-((1-(2-cyanoacetyl)piperidin-3-yl)oxy)-7-isopropoxy-4-(1-(1-methylpiperidin-4-yl)-1H-pyrazol-4-yl)isoquinoline-6-carboxamide] | 19.2 nM | 4.9 µM | 217 nM | 0.145 µM
CCO[C@H]1CC[C@H](n2cc(-c3cnc(O[C@@H]4CCCN(C(=O)CC#N)C4)c4cc(OC(C)C)c(C(N)=O)cc34)cn2)CC1 [Compound I-124, 1-(((R)-1-(2-cyanoacetyl)piperidin-3-yl)oxy)-4-(1-(trans-4-ethoxycyclohexyl)-1H-pyrazol-4-yl)-7-isopropoxyisoquinoline-6-carboxamide] | 6.8 nM | 0.609 µM | 352 nM | 12.2 µM

Source: patent publication US20230391748A1, “BICYCLIC INHIBITORS OF IRAK” (priority 2022, published 2023)
